# Key:
# Assay type in all cases: in vivo
# [1] = test system: wild pansy (Viola tricolor; VIOTR); assay: Postemergence herbicidal activity, greenhouse, visual injury: VIOTR
# CIRAR = assay: Postemergence herbicidal activity, greenhouse, visual injury: CIRAR; details: for CIRAR Ob (visual injury): 20-22 d
# Experimental: (§1) Evaluation of Postemergence Herbicidal Safening in Cereal Crops
# (§2) Seeds of the desired test plant species were planted in Sun Gro MetroMix® 306 planting mixture, which typically has a pH of 6.0 to 6.8 and an organic matter content of about 30 percent, in plastic pots with a surface area of 103.2 square centimeters (cm^2). When required to ensure good germination and healthy plants, a fungicide treatment and/or other chemical or physical treatment was applied. The plants were grown for 7-36 days (d) in a greenhouse with an approximate 14-hour (h) photoperiod which was maintained at about 18° C. during the day and 17° C. during the night. Nutrients and water were added on a regular basis and supplemental lighting was provided with overhead metal halide 1000-Watt lamps as necessary. The plants were employed for testing when they reached the second or third true leaf stage.
# (§3) Treatments consisted of the acids or esters of compounds 1-10 and cloquintocet-mexyl (CQC-M), fenchlorazole-ethyl, mefenpyr-diethyl alone and in combination. Weighed amounts of acid or methyl esters of the compounds of formula (I) were dissolved in a volume of 97:3 v/v acetone/dimethylsulfoxide (DMSO) to obtain concentrated solutions. […] The concentrated solutions of the test compound were diluted with the addition of an aqueous mixture containing acetone, water, isopropyl alcohol, DMSO, Agri-Dex crop oil concentrate, and Triton® X-77 surfactant in a 64.7:26.0:6.7:2.0:0.7:0.01 v/v ratio. Test compounds were diluted to the appropriate application rate with a dilution solution which was prepared by mixing the appropriate volume of 97:3 v/v acetone/DMSO and the appropriate volume of an aqueous mixture containing acetone, water, isopropyl alcohol, DMSO, Agri-Dex crop oil concentrate, and Triton® X-77 surfactant in a 64.7:26.0:6.7:2.0:0.7:0.01 v/v ratio. Compound requirements are based upon a 12 mL application volume at a rate of 187 liters per hectare (L/ha). The concentrated solutions of the safener were prepared following the same procedure. Weighed amounts of safener were dissolved in a volume of 97:3 v/v acetone/DMSO to obtain concentrated safener solutions.
# (§4) Spray solutions of the herbicide safener and test compound mixtures were prepared by adding the concentrated solutions to the appropriate amount of dilution solution to form 12 mL spray solution with active ingredients in combinations.
# (§5) Formulated compounds were applied to the plant material with an overhead Mandel track sprayer equipped with 8002E nozzles calibrated to deliver 187 L/ha over an application area of 0.503 square meters (m^2) at a spray height of 18 inches (43 centimeters (cm)) above average plant canopy. Control plants were sprayed in the same manner with the solvent blank.
# (§6) The treated plants and control plants were placed in a greenhouse as described above and watered by sub-irrigation to prevent wash-off of the test compounds. After 20-22 d, the condition of the test plants as compared with that of the control plants was determined visually and scored on a scale of 0 to 100 percent where 0 corresponds to no injury and 100 corresponds to complete kill.
# (§7) Colby's equation was used to determine the herbicidal effects expected from the mixtures (Colby, S. R. Calculation of the synergistic and antagonistic response of herbicide combinations. Weeds 1967, 15, 20-22.).
# (§8) The following equation was used to calculate the expected activity of mixtures containing two active ingredients, A and B: Expected=A+B−(A×B/100)
# (§9) A=observed efficacy of active ingredient A at the same concentration as used in the mixture.
# (§10) B=observed efficacy of active ingredient B at the same concentration as used in the mixture.
# [2] = test system: durum wheat (Triticum durum L; TRZDU); assay: Postemergence herbicidal safening in cereal crops, greenhouse, visual injury: durum wheat; details: 20-22 d
# Experimental: as §1, §2, §3, §4, §5, §6, §7, §8, §9, §10
# [3] = test system: bird's-eye speedwell (Veronica persica L; VERPE); assay: Postemergence herbicidal activity, greenhouse, visual injury: bird's-eye speedwell
# Experimental: as §1, §2, §3, §4, §5, §6, §7, §8, §9, §10
# [4] = test system: winter wheat (Triticum aestivum L; TRZAW); assay: Postemergence herbicidal safening in cereal crops, greenhouse, visual injury: winter wheat; details: 20-22 d
# Experimental: as §1, §2, §3, §4, §5, §6, §7, §8, §9, §10
# [5] = Compound 10 0, CQC-M 8.75 g ae/ha
# [6] = Compound 10 0, CQC-M 17.5 g ae/ha
# [7] = Compound 10 0, CQC-M 35 g ae/ha
# [8] = Compound 10 0, CQC-M 70 g ae/ha
# [9] = Compound 10 0, CQC-M 140 g ae/ha
structure (smiles),measurement,setting,value
"CCCCCC(C)OC(=O)COc1ccc(Cl)c2cccnc12 (stereo not drawn) [CQC-M, cloquintocet-mexyl, reference compound]","VIOTR Ob (Observed values, % control)",[1]; [5],0%
same,"VIOTR Ob (Observed values, % control)",[1]; [6],0%
same,"VIOTR Ob (Observed values, % control)",[1]; [7],0%
same,"VIOTR Ob (Observed values, % control)",[1]; [8],0%
same,"VIOTR Ob (Observed values, % control)",[1]; [9],0%
same,"CIRAR Ob (Observed values, % control)",CIRAR; [5],0%
same,"CIRAR Ob (Observed values, % control)",CIRAR; [6],0%
same,"CIRAR Ob (Observed values, % control)",CIRAR; [7],0%
same,"CIRAR Ob (Observed values, % control)",CIRAR; [8],0%
same,"CIRAR Ob (Observed values, % control)",CIRAR; [9],0%
same,CIRAR Ob (visual injury),CIRAR; safener alone 70 g/ha,0%
same,CIRAR Ob (visual injury),CIRAR; safener alone 140 g/ha,0%
same,TRZDU Ob (visual injury),[2]; safener alone 0.547 g/ha,0%
same,TRZDU Ob (visual injury),[2]; safener alone 2.1875 g/ha,0%
same,TRZDU Ob (visual injury),[2]; safener alone 8.75 g/ha,0%
same,TRZDU Ob (visual injury),[2]; safener alone 35 g/ha,0%
same,TRZDU Ob (visual injury),[2]; safener alone 70 g/ha,15%
same,TRZDU Ob (visual injury),[2]; safener alone 140 g/ha,20%
same,"VERPE Ob (Observed values, % control)",[3]; [5],0%
same,"VERPE Ob (Observed values, % control)",[3]; [6],0%
same,"VERPE Ob (Observed values, % control)",[3]; [7],0%
same,"VERPE Ob (Observed values, % control)",[3]; [8],0%
same,"VERPE Ob (Observed values, % control)",[3]; [9],0%
same,VERPE Ob (visual injury),"[3]; safener alone 8.75 g/ha, 20-22 d",0%
same,TRZAW Ob (visual injury),[4]; safener alone 0.547 g/ha,0%
same,TRZAW Ob (visual injury),[4]; safener alone 2.1875 g/ha,0%
same,TRZAW Ob (visual injury),[4]; safener alone 8.75 g/ha,0%
same,TRZAW Ob (visual injury),[4]; safener alone 35 g/ha,0%
same,TRZAW Ob (visual injury),[4]; safener alone 70 g/ha,0%
same,TRZAW Ob (visual injury),[4]; safener alone 140 g/ha,0%
